Key:
[1] = system: brown rice planthopper (Nilaparvata lugens); test: Metamorphosis inhibitory activity against brown rice planthopper nymphs; type: in vivo; conditions: sprayed rice plants, 3rd instar nymphs, after 10 days
Description: Metamorphosis inhibitory activity against brown rice planthopper nymphs
An emulsifiable concentrate prepared according to Formulation Example 1 was diluted with water to make a predetermined concentration. The dilution was sprayed onto rice plants cultivated in polyethylene cups at a rate of 20 ml/2 pots on a turning table. After air-drying, the plants were infested with about ten 3rd instar nymphs of brown rice planthopper (Nilaparvata lugens). After 10 days, the number of normal adults was counted to obtain an emergence inhibitory rate.

[2] = system: cotton aphids (Aphis gossypil); test: Reproduction inhibitory activity against cotton aphids; type: in vivo; conditions: 10 ppm; sprayed potted cotton plants infested with 1st instar nymphs, one week after spraying
Description: Reproduction inhibitory activity against cotton aphids
An emulsifiable concentrate prepared according to Formulation Example 1 was diluted with water to make a predetermined concentration. The dilution was sprayed onto potted cotton plants (in a stage of 8-9 days after sowing) infested with 1st instar nymphs of cotton aphids (Aphis gossypil) at a rate of 30 ml/2 pots on a turning table. Before spraying and one week after spraying, the humber of nymphs and aduts was counted, and a reproduction inhibitory index was expressed by the following equation: [formula] wherein the judgement of activity is based on the following standard: A: less than 1 (excellent effect)

[3] = Nilaparvata lugens, 240 h, 5 ppm, read-out: Inhibitory rate (emergence inhibitory rate)
[4] = Nilaparvata lugens, 240 h, 0.05 ppm, read-out: Inhibitory rate (emergence inhibitory rate)

Row | SMILES | inhibition at 5 ppm [1, 3] [%] | inhibition at 0.05 ppm [1, 4] [%] | also measured
1 | S=C(NCCOc1ccc(Oc2cccc(Cl)c2)cc1Cl)C1CC1 [compound 16, N-{2-[2-Chloro-4-(3-chlorophenoxy)phenoxy]ethyl}-cyclopropane thiocarboxyamide] |  |  | inhibition at 0.5 ppm ([1]; Nilaparvata lugens, 240 h, 0.5 ppm, read-out: Inhibitory rate (emergence inhibitory rate)): 100%
2 | O=C(NCCOc1ccc(Oc2ccc(F)cc2F)cc1Cl)C1CC1 [compound 7, N-{2-[2-Chloro-4-(2,4-difluorophenoxy)phenoxy]ethyl}-cyclopropane carboxyamide] | 100 |  | 
3 | O=C(NCCOc1ccc(Oc2ccccc2)cc1)C1CC1 [A, reference compound] | 0 |  | 
4 | CC(C)COCc1ccc(OCCNC(=O)C2CC2)c(Cl)c1 [Compound No. 10, N-{2-[2-Chloro-4-(2-methylpropoxymethyl)phenoxy]ethyl}-cyclopropane carboxyamide] | 100 | 100 | 
5 | Fc1cc(F)cc(Oc2ccc(OCCNC(=S)C3CC3)c(Cl)c2)c1 [compound 4, N-{2-[2-Chloro-4-(3,5-difluorophenoxy)phenoxy]ethyl}-cyclopropane thiocarboxyamide] | 100 | 100 | 
6 | CCC(C)Oc1ccc(OCCNC(=O)C2CC2)c(Cl)c1 (stereo not drawn) [Compound No. 14, N-{2-[2-Chloro-4-(1-methylpropoxy)phenoxy]ethyl}-cyclopropane carboxyamide] | 100 | 100 | 
7 | O=C(NCCOc1cc(Oc2ccccc2)ccc1Cl)C1CC1 [compound 8, N-[2-(2-Chloro-5-phenoxyphenoxy)ethyl]-cyclopropane carboxyamide] | 100 | 100 | 
8 | O=C(NCCOc1ccc(Oc2ccccc2)cc1Cl)C1CC1 [compound 15, N-[2-(2-Chloro-4-phenoxyphenoxy)ethyl]-cyclopropane carboxyamide] | 100 |  | 
9 | O=C(NCCOc1ccc(Oc2cccc(F)c2)cc1Cl)C1CC1 [compound 5, N-{2-[2-Chloro-4-(3-fluorophenoxy)phenoxy]ethyl}-cyclopropane carboxyamide] | 100 | 100 | 
10 | O=C(NCCOc1ccc(Oc2cc(F)cc(F)c2)cc1Cl)C1CC1 [Compound No. 1, N-{2-[2-Chloro-4-(3,5-difluorophenoxy)phenoxy]ethyl}-cyclopropane carboxyamide] | 100 | 100 | reproduction inhibitory index [2]: A (less than 1 (excellent effect))
11 | O=C(NCCOc1ccc(Cc2ccccc2)cc1Cl)C1CC1 [compound 13, N-[2-(4-Benzyl-2-chlorophenoxy)ethyl]-cyclopropane carboxyamide] | 100 | 100 | 
12 | CCC(C)Oc1ccc(OCCNC(=S)C2CC2)c(Cl)c1 (stereo not drawn) [compound 11, N-{2-[2-Chloro-4-(1-methylpropoxy)phenoxy]ethyl}-cyclopropane thiocarboxyamide] |  |  | Inhibitory rate (emergence inhibitory rate) ([1]; 0.05 ppm): 100%; Inhibitory rate (emergence inhibitory rate) ([1]; 5 ppm): 100%
13 | CCC(CC)Cc1ccc(OCCNC(=O)C2CC2)c(Cl)c1 [compound 12, N-{2-[2-Chloro-4-(2-ethylbutyl)phenoxy]ethyl}-cyclopropane carboxyamide] | 100 | 100 | 
14 | O=C(NCCOc1ccc(Oc2cccc(Cl)c2)cc1Cl)C1CC1 [compound 6, N-{2-[2-Chloro-4-(3-chlorophenoxy)phenoxy]ethyl}-cyclopropane carboxyamide] | 100 | 100 | 
15 | S=C(NCCOc1ccc(Cc2ccccc2)cc1Cl)C1CC1 [Compound No. 3, N-[2-(4-Benzyl-2-chlorophenoxy)ethyl]-cyclopropane thiocarboxyamide] | 100 | 100 | 

From patent publication US5364966A, “Amide derivatives, their production processes and their compositions for the control of insect pests” (Sumitomo Chemical Company, Limited, priority 1991, dated 1994)
